The text below walks through data of patent publication EP4741389A1, “KAT6 INHIBITOR” (Shanghai Qilu Pharmaceutical Research and Development …, priority 2023, dated 2025).

In experiment [1] the test system is ZR-75-1 H3K23 Acetylation. The experiment in a line: Histone H3 acetylation assay (H3K23 acetylation in ZR-75-1 cells). It counts as cell-based. Particulars: Homo sapiens, 72 hours incubation, Odyssey CLx fluorescence, read-out: ZR-75-1 H3K23 Acetylation Inhibition IC50. As to the method: III. Histone H3 acetylation assay
• 1. ZR-75-1 cells were seeded at 5000 cells/40 µL per well in 384-well plates and cultured overnight in an incubator at 37°C & 5% CO2. • 2. 40 nL of serially diluted compounds were added to the 384-well plates, followed by further incubation for 72 hours. • 3. The supernatant was discarded, and 8 w/v% paraformaldehyde (final concentration was 4 w/v%) was added directly to the wells to fix the cells at room temperature. • 4. After washing twice with PBS, a permeabilization agent (40 µL of methanol) was added and incubated for 10 minutes to permeabilize the cell membranes. • 5. After washing twice with PBS, a blocking buffer was added and incubated at room temperature for 1 hour for blocking. • 6. The blocking buffer was discarded, and 20 µL of primary antibodies (recombinant Anti-Histone H3 (acetyl K23) antibody and Anti-Histone H4 antibody) diluted in blocking buffer (1:1000 by volume dilution) were added, followed by incubation at 4°C overnight. • 7. After washing three times with PBST (0.05 vol% Tween-20 in PBS), 20 µL of fluorescent secondary antibodies (IRDye 680RD Goat anti-MOUSE, Licor, 926-68070; IRDye 800CW Goat anti-Rabbit, Licor, 926-32211) diluted in blocking buffer (1:2000 by volume dilution) were added, followed by incubation at room temperature, protected from light, for 1 hour. Then, the plates were washed three times with PBST. • 8. Scanning was performed using an Odyssey CLx, and the fluorescence signal value for each well was quantified. IC50 values were calculated by nonlinear regression using a four-parameter logistic equation in GraphPad Prism 8 software.

In the next experiment the test system is ZR-75-1 cells. The experiment in a line: ZR-75-1 cell proliferation assay (CellTiter-Glo). It counts as cell-based. Particulars: Homo sapiens, ZR-75-1, 240 h, total culture period of 10 days, read-out: ZR-75-1 Proliferation Inhibition IC50. As to the method: II. ZR-75-1 cell proliferation assay
• 1. ZR-75-1 cells were seeded in 96-well plates and cultured overnight in an incubator at 37°C & 5% CO2. • 2. Compounds were diluted using culture medium and added to the 96-well plates. The plates were placed back into the incubator for continued culture. Every 5 days, the cells were trypsinized, counted, and re-seeded. After the cells had fully adhered, compounds were added again for incubation, for a total culture period of 10 days. • 3. After the culture period, 60 µL of CellTiter-Glo reagent (Promega, G7573) was added to each well. The plates were protected from light and shaken for 2 minutes to lyse the cells, followed by further incubation at room temperature, protected from light, for 30 minutes. • 4. Luminescence signals were read using a BMG PHERAstar FSX. IC50 values were calculated by nonlinear regression using a four-parameter logistic equation in GraphPad Prism 8 software.

The target in the next experiment is T1, KAT6A (Homo sapiens, UniProt Q92794).
T1 construct: purchased Active Motif 81223
The experiment in a line: KATs acetyltransferase enzyme activity assay (TR-FRET), KAT6A. Format: biochemical. Particulars: Biotin-H3 (1-21) and AcCOA, 90 minutes at room temperature. As to the method:
(§1) I. KATs acetyltransferase enzyme activity assay
• 1. The inhibitory effect of compounds on the acetyltransferase activity of KATs was evaluated using the Time-Resolved Fluorescence Resonance Energy Transfer (TR-FRET) assay. The assay was conducted in 384-well plates using Tris-HCl buffer. • 2. Compounds were diluted in DMSO and transferred to 384-well plates. […] Subsequently, 2.5 µL of a mixture containing KAT6A/KAT6B: Biotin-H3 (1-21, Genscript, C6829GL060) or KAT5/7/8: Bio-H4 (1-25, Genscript, C736BGL100) AcCOA (Sigma, A2056) was added, and the reaction proceeded at room temperature for 90 minutes. • 4. After the reaction, a detection mixture containing Europium-anti-acetyl-Histone H4 Lysine (H4Kac pan) Antibody (Perkin Elmer, TRF0412) and LANCE Ultra ULight™-Streptavidin in LANCE™ Detection buffer (10x) (Perkin Elmer, CR97-100) was added, followed by incubation at room temperature for 60 minutes. • 5. […] IC50 values were calculated by nonlinear regression using a four-parameter logistic equation in GraphPad Prism 8 software.

Another experiment has as its target T2, KAT6B (Homo sapiens, UniProt Q8WYB5).
T2 construct: purchased Active Motif 81224
The experiment in a line: KATs acetyltransferase enzyme activity assay (TR-FRET), KAT6B. Format: biochemical. Particulars: Biotin-H3 (1-21) and AcCOA, 90 minutes at room temperature. As to the method:
as §1
• 1. The inhibitory effect of compounds on the acetyltransferase activity of KATs was evaluated using the Time-Resolved Fluorescence Resonance Energy Transfer (TR-FRET) assay. The assay was conducted in 384-well plates using Tris-HCl buffer. • 2. Compounds were diluted in DMSO and transferred to 384-well plates. Enzyme solutions (KAT6: active motif (kit), 81223; KAT6B: active motif, 81224; KAT5: SignalChem, K314-380G; KAT7: ICE, S2210F-H21HF; KAT8: Active motif, 81225) were added and the mixture was incubated at room temperature for 15 minutes. • 3. Subsequently, 2.5 µL of a mixture containing KAT6A/KAT6B: Biotin-H3 (1-21, Genscript, C6829GL060) or KAT5/7/8: Bio-H4 (1-25, Genscript, C736BGL100) AcCOA (Sigma, A2056) was added, and the reaction proceeded at room temperature for 90 minutes. • 4. After the reaction, a detection mixture containing Europium-anti-acetyl-Histone H4 Lysine (H4Kac pan) Antibody (Perkin Elmer, TRF0412) and LANCE Ultra ULight™-Streptavidin in LANCE™ Detection buffer (10x) (Perkin Elmer, CR97-100) was added, followed by incubation at room temperature for 60 minutes. • 5. HTRF signals were measured using a BMG PHERAstar FSX (Ratio: 665nm/620nm). IC50 values were calculated by nonlinear regression using a four-parameter logistic equation in GraphPad Prism 8 software.

T1 sequence (Q92794 488-778 limits assumed): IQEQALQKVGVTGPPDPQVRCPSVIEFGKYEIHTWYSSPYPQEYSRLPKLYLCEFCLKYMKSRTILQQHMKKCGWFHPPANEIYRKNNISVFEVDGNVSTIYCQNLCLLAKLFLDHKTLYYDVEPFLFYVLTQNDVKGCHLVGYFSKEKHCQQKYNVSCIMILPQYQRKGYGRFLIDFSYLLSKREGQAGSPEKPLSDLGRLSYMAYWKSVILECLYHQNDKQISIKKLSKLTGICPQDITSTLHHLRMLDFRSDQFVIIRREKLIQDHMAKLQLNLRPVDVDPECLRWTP
T2 sequence (Q8WYB5 whole entry): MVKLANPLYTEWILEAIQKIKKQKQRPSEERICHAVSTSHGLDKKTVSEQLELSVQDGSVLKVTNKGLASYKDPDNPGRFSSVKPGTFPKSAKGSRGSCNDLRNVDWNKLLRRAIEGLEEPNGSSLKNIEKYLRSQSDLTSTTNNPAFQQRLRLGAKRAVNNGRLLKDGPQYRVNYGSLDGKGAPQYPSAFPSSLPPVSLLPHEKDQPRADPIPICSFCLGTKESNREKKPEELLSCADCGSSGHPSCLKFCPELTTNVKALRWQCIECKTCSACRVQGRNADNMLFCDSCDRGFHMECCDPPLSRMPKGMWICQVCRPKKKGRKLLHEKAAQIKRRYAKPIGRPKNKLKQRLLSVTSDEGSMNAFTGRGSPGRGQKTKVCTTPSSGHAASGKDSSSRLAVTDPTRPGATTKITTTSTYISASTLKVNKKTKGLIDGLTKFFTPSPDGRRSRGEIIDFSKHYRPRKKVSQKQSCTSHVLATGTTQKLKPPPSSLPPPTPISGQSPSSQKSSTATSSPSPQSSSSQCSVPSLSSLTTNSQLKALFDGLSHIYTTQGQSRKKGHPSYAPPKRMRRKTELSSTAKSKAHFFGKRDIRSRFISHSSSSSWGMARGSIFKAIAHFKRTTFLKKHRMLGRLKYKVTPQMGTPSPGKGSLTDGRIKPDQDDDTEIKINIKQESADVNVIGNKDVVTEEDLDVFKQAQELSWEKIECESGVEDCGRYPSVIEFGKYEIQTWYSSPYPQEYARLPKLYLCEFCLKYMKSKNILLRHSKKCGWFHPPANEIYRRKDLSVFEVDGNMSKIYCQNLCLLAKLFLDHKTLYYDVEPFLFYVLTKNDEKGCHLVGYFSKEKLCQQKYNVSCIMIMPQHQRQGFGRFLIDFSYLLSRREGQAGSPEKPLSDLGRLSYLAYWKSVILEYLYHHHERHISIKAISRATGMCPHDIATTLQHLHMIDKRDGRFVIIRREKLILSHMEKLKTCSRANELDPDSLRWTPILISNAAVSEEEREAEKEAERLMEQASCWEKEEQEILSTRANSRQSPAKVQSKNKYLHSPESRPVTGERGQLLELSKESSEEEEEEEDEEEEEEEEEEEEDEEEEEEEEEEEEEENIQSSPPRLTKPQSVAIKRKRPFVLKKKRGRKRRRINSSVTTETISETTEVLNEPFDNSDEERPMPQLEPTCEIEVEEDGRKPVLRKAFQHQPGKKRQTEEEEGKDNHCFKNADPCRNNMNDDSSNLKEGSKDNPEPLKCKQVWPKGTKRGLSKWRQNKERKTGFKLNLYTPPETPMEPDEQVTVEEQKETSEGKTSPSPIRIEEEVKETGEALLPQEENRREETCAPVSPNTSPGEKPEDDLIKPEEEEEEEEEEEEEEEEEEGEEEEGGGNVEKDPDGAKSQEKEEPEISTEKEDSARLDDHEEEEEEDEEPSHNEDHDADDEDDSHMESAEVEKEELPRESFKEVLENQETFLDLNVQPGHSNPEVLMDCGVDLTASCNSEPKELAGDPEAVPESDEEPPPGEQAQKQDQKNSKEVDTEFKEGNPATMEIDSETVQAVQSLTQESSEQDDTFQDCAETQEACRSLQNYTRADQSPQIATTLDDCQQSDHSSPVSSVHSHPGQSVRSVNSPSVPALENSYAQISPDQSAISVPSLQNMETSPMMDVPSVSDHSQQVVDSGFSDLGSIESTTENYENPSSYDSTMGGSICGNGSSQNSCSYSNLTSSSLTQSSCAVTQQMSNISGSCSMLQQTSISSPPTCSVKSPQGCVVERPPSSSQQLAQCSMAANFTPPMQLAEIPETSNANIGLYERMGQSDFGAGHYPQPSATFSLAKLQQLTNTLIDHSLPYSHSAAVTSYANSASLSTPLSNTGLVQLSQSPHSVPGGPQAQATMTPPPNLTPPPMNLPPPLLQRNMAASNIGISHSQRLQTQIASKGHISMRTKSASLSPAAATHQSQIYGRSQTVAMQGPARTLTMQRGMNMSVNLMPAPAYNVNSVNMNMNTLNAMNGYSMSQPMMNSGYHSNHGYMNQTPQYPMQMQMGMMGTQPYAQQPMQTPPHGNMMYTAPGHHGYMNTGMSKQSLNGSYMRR

For the compound `COc1ccc2c(c1S(=O)(=O)Nc1noc3cc(Cn4cccn4)cc(OC)c13)OC[C@H]1C[C@@H]21` [Compound 5-P1, (1aS,7bR)-N-(6-((1H-Pyrazol-1-yl)methyl)-4-methoxybenzo[d]isoxazol-3-yl)-5-methoxy-1,1a,2,7b-tetrahydrocyclopropa[c]chromene-4-sulfonamide], the IC50 in experiment [1] amounted to 1.9 nM; with ZR-75-1 cells it was 0.3 nM; at KAT6A it was 2.5 nM; against KAT6B, 11.1 nM.

`COc1ccc2c(c1S(=O)(=O)Nc1noc3cc(Cn4cccn4)c4c(c13)OCC4)OCCCO2` [Compound 35, N-(4-((1H-Pyrazol-1-yl)methyl)-2,3-dihydrobenzofuro[7,6-d]isoxazol-8-yl)-7-methoxy-3,4-dihydro-2H-benzo[b][1,4]dioxepine-6-sulfonamide]: the IC50 in experiment [1] was 15 nM; in the experiment on ZR-75-1 cells it was 3.3 nM; on KAT6A it was 4.3 nM; against KAT6B, 45.9 nM.

In the case of `CCc1c(Cn2cccn2)cc2onc(NS(=O)(=O)c3c(OC)ccc4c3OCC43CC3)c2c1OC` [Compound 28, N-(6-((1H-Pyrazol-1-yl)methyl)-5-ethyl-4-methoxybenzo[d]isoxazol-3-yl)-6-methoxy-2 H-spiro[benzofuran-3,1'-cyclopropane]-7-sulfonamide], the IC50 in experiment [1] came out at 37.7 nM; in the experiment on ZR-75-1 cells, 16.6 nM; at KAT6A, 2.2 nM; on KAT6B, 12.3 nM.

With `COc1ccc2c(c1S(=O)(=O)Nc1noc3cc(Cn4cccn4)cc(OC)c13)OCCOC2` [Compound 10, N-(6-((1H-Pyrazol-1-yl)methyl)-4-methoxybenzo[d]isoxazol-3-yl)-8-methoxy-2,3-dihyd ro-5H-benzo [e] [1,4] dioxepine-9-sulfonamide], the IC50 in experiment [1] is 2.3 nM; with ZR-75-1 cells it was 1.4 nM; against KAT6A, 2.2 nM; against KAT6B, 19.9 nM.

As to `COc1ccc2c(c1S(=O)(=O)Nc1noc3cc(Cn4cccn4)c(OC)c(C)c13)OCC1CC21` (stereo not shown) [Compound 40, N-(6-((1H-Pyrazol-1-yl)methyl)-5-methoxy-4-methylbenzo[d]isoxazol-3-yl)-5-methoxy-1,1a,2,7b-tetrahydrocyclopropa[c]chromene-4-sulfonamide], the IC50 stood at 12.4 nM in experiment [1], 1.6 nM in the experiment on ZR-75-1 cells, 1.7 nM at KAT6A and 12.9 nM against KAT6B.

With `CCc1c(Cn2cccn2)cc2onc(NS(=O)(=O)c3c(OC)ccc4c3OCC3CC43)c2c1OC` (stereo not shown) [Compound 27, N-(6-((1H-Pyrazol-1-yl)methyl)-5-ethyl-4-methoxybenzo[d]isoxazol-3-yl)-5-methoxy-1,1a,2,7b-tetrahydrocyclopropa[c]chromene-4-sulfonamide], the IC50 in experiment [1] stood at 27.1 nM; in the experiment with ZR-75-1 cells, 11.5 nM; on KAT6A, 1.3 nM; at KAT6B, 8.9 nM.

As to `COc1ccc2c(c1S(=O)(=O)Nc1noc3cc(Cn4cccn4)c(F)cc13)OCC1CC21` (single isomer, unassigned) [Compound 34], the IC50 is 0.4 nM in experiment [1], 0.04 nM in the experiment with ZR-75-1 cells, 1.2 nM against KAT6A and 2.2 nM against KAT6B.

On to `COc1ccc2c(c1S(=O)(=O)Nc1noc3cc(Cn4cccn4)c(F)c(OC)c13)OCCCO2` [Compound 29, N-(6-((1H-Pyrazol-1-yl)methyl)-5-fluoro-4-methoxybenzo[d]isoxazol-3-yl)-7-methoxy-3,4-dihydro-2H-benzo[b][1,4]dioxepine-6-sulfonamide], for which the IC50 in experiment [1] was 4.6 nM; in the experiment with ZR-75-1 cells it was 0.6 nM; on KAT6A, 3 nM; against KAT6B it was 23.3 nM.

In the case of `COc1ccc2c(c1S(=O)(=O)Nc1noc3cc(Cn4cccn4)c(F)cc13)OCCCO2` [Compound 12, N-(6-((1H-Pyrazol-1-yl)methyl)-5-fluorobenzo[d]isoxazol-3-yl)-7-methoxy-3,4-dihydro-2H-benzo [b] [1,4] dioxepine-6-sulfonamide], the IC50 in experiment [1] is 4.5 nM; in the experiment with ZR-75-1 cells, 1.4 nM; against KAT6A, 6.5 nM; against KAT6B, 40 nM.

For `COc1ccc2c(c1S(=O)(=O)Nc1noc3cc(Cn4cccn4)c(F)c(OC)c13)OCC1CC21` (single isomer, unassigned) [Compound 30-P1], the IC50 in experiment [1] came out at 0.3 nM; in the experiment on ZR-75-1 cells, 0.08 nM; on KAT6A it was 1.4 nM; on KAT6B it was 1.4 nM.

Regarding `COc1ccc2c(c1S(=O)(=O)Nc1noc3cc(Cn4cccn4)cc(OC)c13)OCC1CC21` (stereo not shown) [Compound 5, N-(6-((1H-Pyrazol-1-yl)methyl)-4-methoxybenzo[d]isoxazol-3-yl)-5-methoxy-1,1a,2,7b-tetrahydrocyclopropa[c]chromene-4-sulfonamide], the IC50 in experiment [1] was 0.5 nM; in the experiment with ZR-75-1 cells, 0.2 nM; on KAT6A, 1.5 nM; at KAT6B, 3.7 nM.

For `COc1ccc2c(c1S(=O)(=O)Nc1noc3cc(Cn4cccn4)c4c(c13)OCC4)OCC1CC21` (stereo not shown) [Compound 37, N-(4-((1H-Pyrazol-1-yl)methyl)-2,3-dihydrobenzofuro[7,6-d]isoxazol-8-yl)-5-methoxy-1,1a,2,7b-tetrahydrocyclopropa[c]chromene-4-sulfonamide], the IC50 was found to be 1.2 nM in experiment [1], 0.4 nM in the experiment with ZR-75-1 cells, 1.6 nM on KAT6A and 4.1 nM against KAT6B.

`COc1ccc2c(c1S(=O)(=O)Nc1noc3cc(Cn4cccn4)c(F)c(OC)c13)OCC21CC1` [Compound 31, N-(6-((1H-Pyrazol-1-yl)methyl)-5-fluoro-4-methoxybenzo[d]isoxazol-3-yl)-6-methoxy-2H-spiro[benzofuran-3,1'-cyclopropane]-7-sulfonamide]: the IC50 in experiment [1] was found to be 1.1 nM; in the experiment on ZR-75-1 cells it was 0.3 nM; against KAT6A, 1.3 nM; at KAT6B, 2.7 nM.
